Measured values: US11655258B2, “Heterocycle derivatives as pesticides” (BAYER AKTIENGESELLSCHAFT, priority 2017, dated 2023)
Read-outs that look alike come from different tables or passages of the source.

Key:
[1] = tested on: Myzus persicae; assay: Myzus persicae oral test; assay type: in vivo; settings: 120 h, read-out: efficacy
Method: Myzus persicae Oral Test • Solvent: 100 parts by weight of acetone
To produce a suitable preparation of active compound, 1 part by weight of active compound is dissolved using the specified parts by weight of solvent and made up with water until the desired concentration is attained.
50 μl of the active compound preparation are transferred into microtitre plates and made up to a final volume of 200 μl with 150 μl of IPL41 insect medium (33%+15% sugar). Subsequently, the plates are sealed with parafilm, which a mixed population of green peach aphids (Myzus persicae) within a second microtitre plate is able to puncture and imbibe the solution through.
(§1) After 5 days, the efficacy in % is determined. 100% means that all the aphids have been killed; 0% means that no aphids have been killed.

[2] = tested on: Myzus persicae; assay: Myzus persicae spray test (Chinese cabbage leaf discs); assay type: in vivo; settings: foliar, 120 h, read-out: efficacy
Method: Myzus persicae Spray Test • Solvent: 78 parts by weight of acetone • 1.5 parts by weight of dimethylformamide • Emulsifier: alkylaryl polyglycol ether
(§2) To produce a suitable active compound preparation, 1 part by weight of active compound is dissolved using the stated parts by weight of solvent and made up with water containing an emulsifier concentration of 1000 ppm until the desired concentration is attained. To produce further test concentrations, the formulation is diluted with emulsifier-containing water.
Discs of Chinese cabbage leaves (Brassica pekinensis) infested by all stages of the green peach aphid (Myzus persicae) are sprayed with an active compound formulation of the desired concentration.
as §1

[3] = log P by HPLC on reversed-phase column (EEC Directive 79/831 Annex V.A8); assay type: physicochemical; settings: reversed-phase HPLC column (C18); pH 7.8, 0.001 molar aqueous ammonium bicarbonate/acetonitrile, 55° C.; read-out: log P (neutral)
Method: The log P values are measured according to EEC Directive 79/831 Annex V.A8 by HPLC (high-performance liquid chromatography) on a reversed-phase column (C 18). Temperature: 55° C.
The LC-MS determination in the neutral range is effected at pH 7.8 with 0.001 molar aqueous ammonium bicarbonate solution and acetonitrile as mobile phases; linear gradient from 10% acetonitrile to 95% acetonitrile. Called log P (neutral) in the table.
Calibration is carried out using unbranched alkan-2-ones (having 3 to 16 carbon atoms) with known Log P values (Log P values determined on the basis of the retention times by linear interpolation between two successive alkanones).

[4] = tested on: Aphis gossypii; assay: Aphis gossypii spray test (APHIGO); assay type: in vivo; settings: 144 h, 6 dat, read-out: % efficacy
Method: Aphis gossypii Spray Test (APHIGO) • Solvent: 14 parts by weight of dimethylformamide • Emulsifier: alkylaryl polyglycol ether
(§3) To produce a suitable active compound preparation, 1 part by weight of active compound is dissolved using the stated parts by weight of solvent and made up with water containing an emulsifier concentration of 1000 ppm until the desired concentration is attained. To produce further test concentrations, the formulation is diluted with emulsifier-containing water. If the addition of ammonium salts or/and penetrants is required, these are each added in a concentration of 1000 ppm to the formulation solution.
Cotton plants (Gossypium hirsutum) heavily infested by the cotton aphid (Aphis gossypii) are sprayed with an active compound formulation of the desired concentration.
After the desired time, the kill in % is determined. 100% means that all the aphids have been killed; 0% means that no aphids have been killed.

[5] = tested on: Myzus persicae; assay: Myzus persicae spray test (MYZUPE S), bell pepper plants; assay type: in vivo; settings: 144 h, 6 dat, read-out: % efficacy
Method: Myzus persicae—Spray Test (MYZUPE S) • Solvent: 14 parts by weight of dimethylformamide • Emulsifier: alkylaryl polyglycol ether
as §3
Bell pepper plants (Capsicum annuum) severely infested with the green peach aphid (Myzus persicae) are treated by spraying with the active compound formulation in the desired concentration.
After the desired time, the kill in % is determined. 100% means that all the animals have been killed; 0% means that no animals have been killed.

[6] = tested on: Myzus persicae; assay: Myzus persicae drench test (MYZUPE D), savoy cabbage; assay type: in vivo; settings: soil, 240 h, 10 dat, read-out: % efficacy
Method: Myzus persicae—Drench Test (MYZUPE D) • Solvent: 7 parts by weight of dimethylformamide • Emulsifier: 2 parts by weight of alkylaryl polyglycol ether
To produce a suitable active compound preparation, 1 part by weight of active compound is mixed with the specified amounts of solvent and emulsifier, and the concentrate is diluted with water to the desired concentration, it being necessary to include the volume of soil which is drenched in the calculation. It should be ensured that a concentration of 40 ppm of emulsifier in the soil is not exceeded. To produce further test concentrations, water is used for dilution.
Savoy cabbage (Brassica oleracea) in pots with soil and infested by all stages of the green peach aphid (Myzus persicae) is watered with an active compound preparation of the desired concentration.
After the desired period of time, the efficacy in % is determined. 100% means that all the aphids have been killed; 0% means that no aphids have been killed.

[7] = tested on: Nilaparvata lugens; assay: Nilaparvata lugens spray test (NILALU); assay type: in vivo; settings: 96 h, 4 dat, read-out: % efficacy
Method: Nilaparvata lugens—Spray Test (NILALU) • Solvent: 52.5 parts by weight of acetone • 7 parts by weight of dimethylformamide • Emulsifier: alkylaryl polyglycol ether
as §3
Rice plants (Oryza sativa) are sprayed with an active ingredient formulation of the desired concentration and then populated with larvae of the brown planthopper (Nilaparvata lugens).
After the desired period of time, the efficacy in % is determined. 100% means that all of the planthoppers have been killed; 0% means that none of the planthoppers have been killed.

[8] = tested on: Phaedon cochleariae; assay: Phaedon cochleariae spray test; assay type: in vivo; settings: 168 h, read-out: efficacy; for pest or weed control at 20 g/ha: application rate 20 g/ha
Method: Phaedon cochleariae—Spray Test • Solvent: 78.0 parts by weight of acetone • 1.5 parts by weight of dimethylformamide • Emulsifier: alkylaryl polyglycol ether
as §2
Discs of Chinese cabbage leaves (Brassica pekinensis) are sprayed with an active compound formulation of the desired concentration and, after drying, populated with larvae of the mustard beetle (Phaedon cochleariae).
After 7 days, the efficacy in % is determined. 100% means that all the beetle larvae have been killed; 0% means that no beetle larvae have been killed.

[9] = tested on: Ctenocephalides felis; assay: Ctenocephalides felis oral test; assay type: in vivo; settings: application rate 100 ppm in citrated cattle blood, after 2 days
Method: Ctenocephalides felis—Oral Test • Solvent: dimethyl sulfoxide
To produce a suitable active compound formulation, 10 mg of active compound are mixed with 0.5 ml of dimethyl sulfoxide. Dilution with citrated cattle blood gives the desired concentration.
About 20 unfed adult cat fleas (Ctenocephalides felis) are placed into a chamber which is closed at the top and bottom with gauze. A metal cylinder whose bottom end is closed with parafilm is placed onto the chamber. The cylinder contains the blood/active compound formulation, which can be imbibed by the fleas through the parafilm membrane.
After 2 days, the kill in % is determined. 100% means that all of the fleas have been killed; 0% means that none of the fleas have been killed.

[10] = tested on: Lucilia cuprina; assay: Lucilia cuprina test; assay type: in vivo; settings: application rate 100 ppm, L1 larvae, after 2 days
Method: Lucilia cuprina Test • Solvent: dimethyl sulfoxide
To produce a suitable active compound formulation, 10 mg of active compound are mixed with 0.5 ml of dimethyl sulfoxide, and the concentrate is diluted with water to the desired concentration.
About 20 L1 larvae of the Australian sheep blowfly (Lucilia cuprina) are transferred into a test vessel containing minced horsemeat and the active compound formulation of the desired concentration.
After 2 days, the kill in % is determined. 100% means that all the larvae have been killed; 0% means that no larvae have been killed.

[11] = tested on: Spodoptera frugiperda; assay: Spodoptera frugiperda spray test; assay type: in vivo; settings: application rate 100 g/ha, after 7 days
Method: Spodoptera frugiperda—Spray Test • Solvent: 78.0 parts by weight of acetone • 1.5 parts by weight of dimethylformamide • Emulsifier: alkylaryl polyglycol ether
as §2
Leaf discs of maize (Zea mays) are sprayed with an active compound formulation of the desired concentration and, after drying, populated with caterpillars of the fall armyworm (Spodoptera frugiperda).
After 7 days, the efficacy in % is determined. 100% means that all the caterpillars have been killed; 0% means that no caterpillar has been killed.

[12] = application rate 4 ppm, after 5 days
[13] = application rate 100 g/ha, after 5 days
[14] = application rate 100 g/ha, after 7 days

SMILES: CCS(=O)(=O)c1c(-c2nc3cnc(C(F)(F)F)cn3n2)ncc2ccccc12 [Example I-16]
- pest or weed control at 4 ppm [1, 12]: 100%
- pest or weed control at 100 g/ha [2, 13]: 100%

SMILES: CCS(=O)(=O)c1c(-c2nc3ccc(C(F)(F)F)cn3n2)ncc2ccccc12 [Example I-15]
- pest or weed control at 4 ppm [1, 12]: 100%
- pest or weed control at 100 g/ha [2, 13]: 90%

SMILES: FC(F)(F)c1cn2nc(-c3nc4ccccc4cc3Br)nc2cn1 [3-Bromo-2-[6-(trifluoromethyl)-[1,2,4]triazolo[1,5-a]pyrazin-2-yl]quinoline]
- chromatographic logP [3]: 2.98

SMILES: CCS(=O)(=O)c1c(-c2nc3cc(C(F)(F)F)ccc3n2C)nc2cc(C(F)(F)F)ccn12 [Example I-34, reference compound]
- aphid kill at 20 ppm [4]: 0%
- Emax at 20 ppm [5]: 0%
- Emax at 20 ppm [6]: 0%
- Emax at 100 g/ha [7]: 0%
- Emax at 500 g/ha ([7]; 500 g/ha): 0%

SMILES: CCS(=O)(=O)c1c(-c2nc3ccc(C(F)(F)F)cn3n2)nc2cc(OCC(F)(F)F)ccn12 [Example I-06]
- pest or weed control at 4 ppm [1, 12]: 100%
- pest or weed control at 20 g/ha ([8]; after 7 days): 100%
- pest or weed control at 100 g/ha [8, 14]: 100%
- Emax at 20 ppm [4]: 95%
- Emax at 20 ppm [5]: 99%

SMILES: CCSc1c(C(=O)OC)nc2cc(C(F)(F)F)ccn12 [Methyl 3-(ethylsulfanyl)-7-(trifluoromethyl)imidazo[1,2-a]pyridine-2-carboxylate]
- chromatographic logP [3]: 2.56

SMILES: CCS(=O)(=O)c1c(C(N)=O)nc2cc(C(F)(F)F)ccn12 [3-(Ethylsulfonyl)-7-(trifluoromethyl)imidazo[1,2-a]pyridine-2-carboxamide]
- chromatographic logP [3]: 1.57

SMILES: CCS(=O)(=O)c1cc2ccccc2nc1-c1nc2ccc(C(F)(F)F)cn2n1 [Example I-03]
- pest or weed control at 4 ppm [1, 12]: 100%
- pest or weed control at 100 g/ha [2, 13]: 90%
- pest or weed control at 100 g/ha [8, 14]: 100%

SMILES: CCS(=O)(=O)c1c(C(=O)OC)nc2cc(C(F)(F)F)ccn12 [Methyl 3-(ethylsulfonyl)-7-(trifluoromethyl)imidazo[1,2-a]pyridine-2-carboxylate]
- chromatographic logP [3]: 2.15

SMILES: CCS(=O)(=O)c1c(-c2nc3ccc(C(F)(F)F)cn3n2)nc2cc(NC(=O)OC)ccn12 [Example I-08]
- efficacy (kill) [9]: 90%
- efficacy (kill) [10]: 100%
- pest or weed control at 4 ppm [1]: 100%
- pest or weed control at 100 g/ha [2]: 100%
- pest or weed control at 100 g/ha [8]: 83%

SMILES: CCS(=O)(=O)c1c(-c2nc3ccc(C(F)(F)F)cn3n2)nc2cc(C(=O)OC)ccn12 [Example I-11]
- pest or weed control at 4 ppm [1, 12]: 100%

SMILES: CCS(=O)(=O)c1c(-c2nc3ccc(C(F)(F)F)cn3n2)nc2n1CCCC2 [Example I-04]
- pest or weed control at 4 ppm [1, 12]: 100%

SMILES: CCS(=O)(=O)c1cc2ccccc2nc1-c1nc2cnc(C(F)(F)F)cn2n1 [Example I-02, 3-Ethylsulfonyl-2-[6-(trifluoromethyl)-[1,2,4]triazolo[1,5-a]pyrazin-2-yl]quinoline]
- pest or weed control at 4 ppm [1, 12]: 90%
- pest or weed control at 100 g/ha [2, 13]: 100%
- pest or weed control at 100 g/ha [8, 14]: 100%
- chromatographic logP [3]: 2.44

SMILES: CCS(=O)(=O)c1c(C#N)nc2cc(C(F)(F)F)ccn12 [3-(Ethylsulfonyl)-7-(trifluoromethypimidazo[1,2-a]pyridine-2-carbonitrile]
- chromatographic logP [3]: 2.28

SMILES: CCS(=O)(=O)c1c(-c2nc3ccc(C(F)(F)F)cn3n2)nc2cc(NC(C)=O)ccn12 [Example I-07]
- efficacy (kill) [9]: 100%
- pest or weed control at 4 ppm [1, 12]: 100%

SMILES: CCS(=O)(=O)c1c(-c2nc3ccc(C(F)(F)F)cn3n2)nc2cc(C3CC3)ccn12 [Example I-10]
- pest or weed control at 4 ppm [1, 12]: 100%
- pest or weed control at 100 g/ha [2, 13]: 90%
- pest or weed control at 20 g/ha ([8]; after 7 days): 83%
- efficacy [11]: 83%
- aphid kill at 20 ppm [4]: 99%
- Emax at 20 ppm [5]: 100%
- Emax at 20 ppm [6]: 90%
- Emax at 100 g/ha [7]: 100%

SMILES: CCS(=O)(=O)c1c(-c2nc3ccc(C(F)(F)F)cn3n2)nc2cc(S(=O)(=O)C3CC3)ccn12 [Example I-13]
- pest or weed control at 4 ppm [1, 12]: 100%
- pest or weed control at 100 g/ha [2, 13]: 100%
- pest or weed control at 20 g/ha ([8]; after 7 days): 83%
- pest or weed control at 100 g/ha [8, 14]: 100%
- Emax at 20 ppm [4]: 99%
- Emax at 20 ppm [5]: 95%
- Emax at 20 ppm [6]: 100%
- Emax at 100 g/ha [7]: 100%

SMILES: N=C(Nc1cnc(C(F)(F)F)cn1)c1nc2ccccc2cc1Br [3-Bromo-N-[5-(trifluoromethyl)pyrazin-2-yl]quinoline-2-carboxamidine]
- chromatographic logP [3]: 3.01
